Test results taken from PubChem BioAssay (NCI).
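Each compound was tested at five concentrations against cells in 96-well plates for 48 hours. TGI marks complete inhibition of growth.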

Tests used:
Assay in all cases: DTP human tumour cell line panel, 48 h
MALME-3M melanoma = test system: MALME-3M melanoma
NCI/ADR-RES ovarian = test system: NCI/ADR-RES ovarian
NCI-H23 lung = test system: NCI-H23 lung
M14 melanoma = test system: M14 melanoma
RXF 393 renal = test system: RXF 393 renal
HCT-15 colon = test system: HCT-15 colon
SF-295 CNS = test system: SF-295 CNS
ACHN renal = test system: ACHN renal
MDA-N = test system: MDA-N
SR leukemia = test system: SR leukemia
SK-MEL-28 melanoma = test system: SK-MEL-28 melanoma
KM12 colon = test system: KM12 colon
PC-3 prostate = test system: PC-3 prostate
SW-620 colon = test system: SW-620 colon
MOLT-4 leukemia = test system: MOLT-4 leukemia
CCRF-CEM leukemia = test system: CCRF-CEM leukemia
SF-268 CNS = test system: SF-268 CNS
HOP-62 NSCLC = test system: HOP-62 NSCLC
HCT-116 colon = test system: HCT-116 colon
UACC-257 melanoma = test system: UACC-257 melanoma
HT29 colon = test system: HT29 colon
NCI-H522 lung = test system: NCI-H522 lung
UACC-62 melanoma = test system: UACC-62 melanoma
CAKI-1 renal = test system: CAKI-1 renal
T-47D breast = test system: T-47D breast
COLO 205 colon = test system: COLO 205 colon
EKVX NSCLC = test system: EKVX NSCLC
NCI-H460 lung = test system: NCI-H460 lung
786-0 renal = test system: 786-0 renal
SK-MEL-2 melanoma = test system: SK-MEL-2 melanoma
A549 NSCLC = test system: A549 NSCLC
IGROV1 ovarian = test system: IGROV1 ovarian
HL-60(TB) leukemia = test system: HL-60(TB) leukemia
UO-31 renal = test system: UO-31 renal
RPMI-8226 leukemia = test system: RPMI-8226 leukemia
OVCAR-8 ovarian = test system: OVCAR-8 ovarian
HS 578T breast = test system: HS 578T breast
MDA-MB-435 = test system: MDA-MB-435
DU-145 prostate = test system: DU-145 prostate
OVCAR-3 ovarian = test system: OVCAR-3 ovarian
OVCAR-5 ovarian = test system: OVCAR-5 ovarian
SNB-75 CNS = test system: SNB-75 CNS
SK-MEL-5 melanoma = test system: SK-MEL-5 melanoma
SN12C renal = test system: SN12C renal
MCF7 breast = test system: MCF7 breast
SF-539 CNS = test system: SF-539 CNS
LOX IMVI melanoma = test system: LOX IMVI melanoma
A498 renal = test system: A498 renal
TK-10 renal = test system: TK-10 renal
BT-549 breast = test system: BT-549 breast
U251 CNS = test system: U251 CNS
K-562 leukemia = test system: K-562 leukemia
HOP-92 NSCLC = test system: HOP-92 NSCLC
MDA-MB-231 breast = test system: MDA-MB-231 breast
OVCAR-4 ovarian = test system: OVCAR-4 ovarian
SK-OV-3 ovarian = test system: SK-OV-3 ovarian
SNB-19 CNS = test system: SNB-19 CNS
NCI-H226 lung = test system: NCI-H226 lung
HCC-2998 colon = test system: HCC-2998 colon

Question: `CSc1c(CC(=O)O)n(Cc2ccccc2)c2ccccc12` was tested. Which TGI (MALME-3M melanoma) did it give?
Answer: > 100 µM

Question: And the TGI (NCI/ADR-RES ovarian)?
Answer: > 100 µM

Question: What about the TGI (NCI-H23 lung) of the same compound?
Answer: > 100 µM

Question: What about the TGI (M14 melanoma) of the same compound?
Answer: > 100 µM

Question: And the TGI (RXF 393 renal)?
Answer: > 100 µM

Question: What about the TGI (HCT-15 colon) of the same compound?
Answer: > 100 µM

Question: What about the TGI (SF-295 CNS) of the same compound?
Answer: > 100 µM

Question: And the TGI (ACHN renal)?
Answer: > 100 µM

Question: And the TGI (MDA-N)?
Answer: > 100 µM

Question: What about the TGI (SR leukemia) of the same compound?
Answer: > 100 µM

Question: What about the TGI (SK-MEL-28 melanoma) of the same compound?
Answer: > 100 µM

Question: And the TGI (KM12 colon)?
Answer: > 100 µM

Question: What about the TGI (PC-3 prostate) of the same compound?
Answer: > 100 µM

Question: What about the TGI (SW-620 colon) of the same compound?
Answer: > 100 µM

Question: What about the TGI (MOLT-4 leukemia) of the same compound?
Answer: > 100 µM

Question: And the TGI (CCRF-CEM leukemia)?
Answer: > 100 µM

Question: What about the TGI (SF-268 CNS) of the same compound?
Answer: > 100 µM

Question: And the TGI (HOP-62 NSCLC)?
Answer: > 100 µM

Question: What about the TGI (HCT-116 colon) of the same compound?
Answer: > 100 µM

Question: What about the TGI (UACC-257 melanoma) of the same compound?
Answer: > 100 µM

Question: And the TGI (HT29 colon)?
Answer: > 100 µM

Question: What about the TGI (NCI-H522 lung) of the same compound?
Answer: > 100 µM

Question: And the TGI (UACC-62 melanoma)?
Answer: > 100 µM

Question: What about the TGI (CAKI-1 renal) of the same compound?
Answer: > 100 µM

Question: And the TGI (T-47D breast)?
Answer: > 100 µM

Question: And the TGI (COLO 205 colon)?
Answer: > 100 µM

Question: What about the TGI (EKVX NSCLC) of the same compound?
Answer: > 100 µM

Question: And the TGI (NCI-H460 lung)?
Answer: > 100 µM

Question: What about the TGI (786-0 renal) of the same compound?
Answer: > 100 µM

Question: What about the TGI (SK-MEL-2 melanoma) of the same compound?
Answer: > 100 µM

Question: And the TGI (A549 NSCLC)?
Answer: > 100 µM

Question: What about the TGI (IGROV1 ovarian) of the same compound?
Answer: > 100 µM

Question: What about the TGI (HL-60(TB) leukemia) of the same compound?
Answer: > 100 µM

Question: And the TGI (UO-31 renal)?
Answer: > 100 µM

Question: And the TGI (RPMI-8226 leukemia)?
Answer: > 100 µM

Question: And the TGI (OVCAR-8 ovarian)?
Answer: > 100 µM

Question: And the TGI (HS 578T breast)?
Answer: > 100 µM

Question: And the TGI (MDA-MB-435)?
Answer: > 100 µM

Question: What about the TGI (DU-145 prostate) of the same compound?
Answer: > 100 µM

Question: And the TGI (OVCAR-3 ovarian)?
Answer: > 100 µM

Question: What about the TGI (OVCAR-5 ovarian) of the same compound?
Answer: > 100 µM

Question: What about the TGI (SNB-75 CNS) of the same compound?
Answer: > 100 µM

Question: And the TGI (SK-MEL-5 melanoma)?
Answer: > 100 µM

Question: And the TGI (SN12C renal)?
Answer: > 100 µM

Question: And the TGI (MCF7 breast)?
Answer: > 100 µM

Question: What about the TGI (SF-539 CNS) of the same compound?
Answer: > 100 µM

Question: What about the TGI (LOX IMVI melanoma) of the same compound?
Answer: > 100 µM

Question: What about the TGI (A498 renal) of the same compound?
Answer: > 100 µM

Question: And the TGI (TK-10 renal)?
Answer: > 100 µM

Question: And the TGI (BT-549 breast)?
Answer: > 100 µM

Question: What about the TGI (U251 CNS) of the same compound?
Answer: > 100 µM

Question: And the TGI (K-562 leukemia)?
Answer: > 100 µM

Question: What about the TGI (HOP-92 NSCLC) of the same compound?
Answer: > 100 µM

Question: And the TGI (MDA-MB-231 breast)?
Answer: > 100 µM

Question: What about the TGI (OVCAR-4 ovarian) of the same compound?
Answer: > 100 µM

Question: And the TGI (SK-OV-3 ovarian)?
Answer: > 100 µM

Question: And the TGI (SNB-19 CNS)?
Answer: > 100 µM

Question: What does the source list for `CC(C)(C)[Si](C)(C)OCC1OC(n2cc(F)c(=O)[nH]c2=O)CC1O[Si](C)(C)C(C)(C)C` (centres undefined)?
Answer: TGI (MALME-3M melanoma): 31.2 µM; TGI (NCI/ADR-RES ovarian): 35.6 µM; TGI (NCI-H23 lung): 19.6 µM; TGI (M14 melanoma): 30.9 µM; TGI (RXF 393 renal): 16.2 µM; TGI (HCT-15 colon): 20.4 µM; TGI (SF-295 CNS): 21.4 µM; TGI (ACHN renal): 21.8 µM; TGI (MDA-N): 18.4 µM; TGI (SR leukemia): 7.08 µM; TGI (NCI-H226 lung): 42.9 µM; TGI (HCC-2998 colon): 3.48 µM; TGI (KM12 colon): 14.7 µM; TGI (PC-3 prostate): 14.2 µM; TGI (SW-620 colon): 23.1 µM; TGI (MOLT-4 leukemia): 22 µM; TGI (CCRF-CEM leukemia): 10.2 µM; TGI (SF-268 CNS): 29.8 µM; TGI (HOP-62 NSCLC): 30 µM; TGI (HCT-116 colon): 19.8 µM; TGI (UACC-257 melanoma): 15.9 µM; TGI (HT29 colon): > 100 µM; TGI (NCI-H522 lung): 12.7 µM; TGI (UACC-62 melanoma): 15.7 µM; TGI (CAKI-1 renal): 25.6 µM; TGI (T-47D breast): 12.7 µM; TGI (COLO 205 colon): 19.5 µM; TGI (EKVX NSCLC): 21.7 µM; TGI (NCI-H460 lung): 15.7 µM; TGI (786-0 renal): 20.9 µM; TGI (SK-MEL-2 melanoma): 29.7 µM; TGI (A549 NSCLC): 25.6 µM; TGI (IGROV1 ovarian): 19.7 µM; TGI (HL-60(TB) leukemia): 12.5 µM; TGI (UO-31 renal): 23 µM; TGI (RPMI-8226 leukemia): 12.9 µM; TGI (OVCAR-8 ovarian): 35.7 µM; TGI (HS 578T breast): 26.4 µM; TGI (MDA-MB-435): 26.5 µM; TGI (DU-145 prostate): 11.3 µM; TGI (OVCAR-3 ovarian): 32.5 µM; TGI (OVCAR-5 ovarian): 33 µM; TGI (SNB-75 CNS): 15.9 µM; TGI (SK-MEL-5 melanoma): 17.1 µM; TGI (SN12C renal): 9.43 µM; TGI (MCF7 breast): 24.9 µM; TGI (SF-539 CNS): 30.7 µM; TGI (LOX IMVI melanoma): 20 µM; TGI (A498 renal): 21.1 µM; TGI (TK-10 renal): 13.9 µM; TGI (BT-549 breast): 17 µM; TGI (U251 CNS): 22.5 µM; TGI (K-562 leukemia): 16 µM; TGI (MDA-MB-231 breast): 22 µM; TGI (OVCAR-4 ovarian): 17.4 µM; TGI (SK-OV-3 ovarian): 28.3 µM; TGI (SNB-19 CNS): 25.3 µM
